Reference: publication PMC8199001, “Design, Synthesis, and Biological Evaluation of Novel 6H-Benzo[c]chromen-6-one Derivatives as Potential Phosphodiesterase II Inhibitors” (International Journal of Molecular Sciences, 2021)
“Also recorded” adds a separate entry of the source.

Columns and labels:
PDE2 = PDE2 (Homo sapiens, UniProt O00408); experiment: In vitro PDE2 enzymatic inhibition assay (Bio-cAMP substrate, AlphaScreen detection); format: biochemical; details: for PDE2 inhibitory activity (result in words): enzyme level;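 on all read-outs here: enzyme reaction run 0.5 h, then anti-cAMP acceptor and streptavidin donor beads added for 1 h in the dark before plate reading, compounds serially diluted from DMSO stock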
Procedure: Preparation of 1*Rection Buffer: we took 1 mL 10*Rection Buffer, added 9 mL ultra-pure water to swirl and mix well, and put it on ice; preparation of PDE2 solution: 210 μL of 1*Rection Buffer were added into a centrifuge tube, then 30 μL PDE2 were added, mixed well, equal to 8-times dilution, and placed on ice; preparation of compound solution with gradient concentration: DMSO was used as the solvent to prepare 10 mM compound solution, and then diluted with 1*Rection Buffer.
We took 2 μL of the diluted compound solution of each concentration into the microplate, added 4 μL PDE2 solution, numbered them A1–A9, added 2 μL 1*Rection Buffer and 4 μL PDE2 into A10, added 2 μL compound solution and 4 μL 1*Rection Buffer to A11, added 6 μL 1*Rection Buffer to A13, and ensured the three groups are parallel to each other. […] The reaction time was 0.5 h in the microporous plate thermostatic oscillator.
Anti-Camp Alohascreen Acceptor and Streptavidin Coated Donor Bead were purchased from Perkin Elmer Company according to response volume: 1* Immunoassay Buffer 549.32 μL and 3.70 μL anti-cAMP AlohaScreen Acceptor were collected under dark conditions. We took 1.98 μL Streptavidin coated Donor Bead, mixed well, added 15 μL mixture to each well after 1 h reaction, and reacted it in the dark for 1 h. After the reaction, we tested it with multilabel microplate detector.

[1] = in vitro, Bio-cAMP as substrate, mean of at least three experiments

PDE2, sequence (O00408 whole entry): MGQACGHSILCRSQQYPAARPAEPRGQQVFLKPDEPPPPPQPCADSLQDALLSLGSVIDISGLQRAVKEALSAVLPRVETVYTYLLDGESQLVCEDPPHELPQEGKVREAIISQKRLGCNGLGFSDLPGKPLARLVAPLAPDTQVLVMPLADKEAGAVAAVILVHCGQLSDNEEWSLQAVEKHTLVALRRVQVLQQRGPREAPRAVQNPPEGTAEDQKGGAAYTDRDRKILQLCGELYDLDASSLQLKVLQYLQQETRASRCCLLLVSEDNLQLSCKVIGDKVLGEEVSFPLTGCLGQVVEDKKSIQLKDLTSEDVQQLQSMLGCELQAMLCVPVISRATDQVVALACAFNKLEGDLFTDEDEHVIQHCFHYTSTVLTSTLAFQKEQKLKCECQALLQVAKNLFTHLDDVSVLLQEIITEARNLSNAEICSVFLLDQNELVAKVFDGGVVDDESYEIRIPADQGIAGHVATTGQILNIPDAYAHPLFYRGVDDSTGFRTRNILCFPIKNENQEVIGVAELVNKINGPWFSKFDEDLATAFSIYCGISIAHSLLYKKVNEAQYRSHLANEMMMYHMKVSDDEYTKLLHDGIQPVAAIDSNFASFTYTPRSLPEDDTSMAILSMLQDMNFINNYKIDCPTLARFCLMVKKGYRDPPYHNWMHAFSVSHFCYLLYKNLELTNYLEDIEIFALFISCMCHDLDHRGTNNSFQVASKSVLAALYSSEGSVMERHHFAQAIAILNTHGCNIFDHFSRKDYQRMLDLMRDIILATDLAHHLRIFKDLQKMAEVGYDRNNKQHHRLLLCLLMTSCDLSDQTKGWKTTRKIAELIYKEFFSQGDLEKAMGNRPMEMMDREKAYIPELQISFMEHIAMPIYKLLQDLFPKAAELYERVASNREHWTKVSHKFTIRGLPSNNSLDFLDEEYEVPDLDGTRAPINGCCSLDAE

IC50 (PDE2; [1]) | melting point | PDE2 inhibitory activity (result in words) (PDE2) | PDE2 IC50 (PDE2; [1]) | Structure (SMILES)
28.8 ± 7.8 µM | – | – | – | COc1ccc2c(c1)oc(=O)c1ccccc12 [Compound 1a, 3-Methoxy-6H-benzo[c]chromen-6-one]
25.4 ± 5.13 µM | 115.2 to 117.7 °C | – | – | CCOc1ccc2c(c1)oc(=O)c1ccccc12 [Compound 1b, Ethoxy-6H-benzo[c]chromen-6-one]
25.8 ± 5.45 µM | 58.7 to 59.1 °C | – | – | CC(C)Oc1ccc2c(c1)oc(=O)c1ccccc12 [Compound 1c, 3-Isopropoxy-6H-benzo[c]chromen-6-one]
> 50 µM | – | – | – | CCCOc1ccc2c(c1)oc(=O)c1ccccc12 [Compound 1d, 3-Propoxy-6H-benzo[c]chromen-6-one]
> 50 µM | 69.4 to 71.8 °C | – | – | CCCCCOc1ccc2c(c1)oc(=O)c1ccccc12 [Compound 1g, 3-(pentyloxy)-6H-benzo[c]chromen-6-one]
18.7 ± 2.72 µM | 124.7 to 125.8 °C | good PDE2 inhibitory activity | – | CCOC(=O)COc1ccc2c(c1)oc(=O)c1ccccc12 [Compound 1h, ethyl 2-((6-oxo-6H-benzo[c]chromen-3-yl)oxy)acetate]
17.9 ± 1.87 µM | 133 to 134.8 °C | good PDE2 inhibitory activity | – | O=c1oc2cc(OCC3CCOCC3)ccc2c2ccccc12 [Compound 1i, 3-((tetrahydro-2H-pyran-4-yl)methoxy)-6H-benzo[c]chromen-6-one]
> 50 µM | 164.3 to 166.6 °C | – | – | O=c1oc2cc(OCCn3cccn3)ccc2c2ccccc12 [Compound 1k, 3-(2-(1H-pyrazol-1-yl)ethoxy)-6H-benzo[c]chromen-6-one]
19.3 ± 2.38 µM | 174 to 176.6 °C | good PDE2 inhibitory activity | – | O=c1oc2cc(Oc3ncccn3)ccc2c2ccccc12 [Compound 1l, 3-(Pyrimidin-2-yloxy)-6H-benzo[c]chromen-6-one]
> 50 µM | 125.7 to 126.4 °C | – | – | O=c1oc2cc(OCCO)ccc2c2ccccc12 [Compound 1m, 3-(2-Hydroxyethoxy)-6H-benzo[c]chromen-6-one]
27.5 ± 1.49 µM | 82.8 to 84.1 °C | – | – | O=c1oc2cc(OCC3CCCO3)ccc2c2ccccc12 (centres unmarked) [Compound 1n, 3-((Tetrahydrofuran-2-yl)methoxy)-6H-benzo[c]chromen-6-one]
> 50 µM | 135.6 to 137.8 °C | – | – | O=c1oc2cc(OCC3OCCO3)ccc2c2ccccc12 [Compound 1o, 3-((1,3-Dioxolan-2-yl)methoxy)-6H-benzo[c]chromen-6-one]
> 50 µM | 133.8 to 135 °C | – | – | COc1cc(COc2ccc3c(c2)oc(=O)c2ccccc23)cc(OC)c1 [Compound 1p, 3-((3,5-Dimethoxybenzyl)oxy)-6H-benzo[c]chromen-6-one]
> 50 µM | 165.1 to 167.6 °C | – | – | Cc1cc(COc2ccc3c(c2)oc(=O)c2ccccc23)n(C)n1 [Compound 1q, 3-((1,3-Dimethyl-1H-pyrazol-5-yl)methoxy)-6H-benzo[c]chromen-6-one]
27.6 ± 2.14 µM | – | – | – | O=c1oc2cc(OCc3cccnc3)ccc2c2ccccc12 [Compound 1r, 3-(Pyridin-3-ylmethoxy)-6H-benzo[c]chromen-6-one]
8.14 ± 0.54 µM | 90.6 to 91.2 °C | good PDE2 inhibitory activity | – | O=c1oc2cc(OCC3CCCC3)ccc2c2ccccc12 [Compound 1s, 3-(Cyclopentylmethoxy)-6H-benzo[c]chromen-6-one]
> 50 µM | 147 to 149.2 °C | – | – | O=c1oc2cc(OCc3ccc(CO)cc3)ccc2c2ccccc12 [Compound 1t, 3-((4-[Hydroxymethyl]benzyl)oxy)-6H-benzo[c]chromen-6-one]
> 50 µM | 100.8 to 102.8 °C | – | – | O=c1oc2cc(OCCN3CCOCC3)ccc2c2ccccc12 [Compound 1u, 3-(2-Morpholinoethoxy)-6H-benzo[c]chromen-6-one]
> 50 µM | – | – | – | COc1ccc2c(c1)oc(=O)c1cc(OC)ccc12 [Compound 2a, 3,8-Dimethoxy-6H-benzo[c]chromen-6-one]

IC50 (PDE2; [1]) | melting point | PDE2 inhibitory activity (result in words) (PDE2) | PDE2 IC50 (PDE2; [1]) | Structure (SMILES)
> 50 µM | 141.1 to 143.8 °C | – | – | CCOc1ccc2c(c1)oc(=O)c1cc(OC)ccc12 [Compound 2b, 3-Ethoxy-8-methoxy-6H-benzo[c]chromen-6-one]
> 50 µM | 109.3 to 111.6 °C | – | – | CCCOc1ccc2c(c1)oc(=O)c1cc(OC)ccc12 [Compound 2c, 8-Methoxy-3-propoxy-6H-benzo[c]chromen-6-one]
> 50 µM | 73.1 to 75.5 °C | – | – | CCCCCOc1ccc2c(c1)oc(=O)c1cc(OC)ccc12 [Compound 2f, 8-Methoxy-3-(pentyloxy)-6H-benzo[c]chromen-6-one]
30.3 ± 7.38 µM | 88.3 to 90.7 °C | – | – | COc1ccc2c(c1)c(=O)oc1cc(OC(C)C)ccc12 [Compound 2g, 3-Isopropoxy-8-methoxy-6H-benzo[c]chromen-6-one]
> 50 µM | 166.8 to 168 °C | – | – | COc1ccc2c(c1)c(=O)oc1cc(OCCO)ccc12 [Compound 2h, 3-(2-Hydroxyethoxy)-8-methoxy-6H-benzo[c]chromen-6-one]
> 50 µM | – | – | – | CCOC(=O)COc1ccc2c(c1)oc(=O)c1cc(OC)ccc12 [Compound 2j, Ethyl 2-((8-methoxy-6-oxo-6H-benzo[c]chromen-3-yl)oxy)acetate]
> 50 µM | – | – | – | COc1ccc2c(c1)c(=O)oc1cc(OCC3CCCC3)ccc12 [Compound 2k, 3-(Cyclopentylmethoxy)-8-methoxy-6H-benzo[c]chromen-6-one]
> 50 µM | 113.1 to 115.5 °C | – | – | COc1ccc2c(c1)c(=O)oc1cc(OCC3CCCO3)ccc12 (centres unmarked) [Compound 2l, 8-Methoxy-3-((tetrahydrofuran-2-yl)methoxy)-6H-benzo[c]chromen-6-one]
> 50 µM | 147.9 to 150.1 °C | – | – | COc1ccc2c(c1)c(=O)oc1cc(OCC3OCCO3)ccc12 [Compound 2m, 3-((1,3-Dioxolan-2-yl)methoxy)-8-methoxy-6H-benzo[c]chromen-6-one]
> 50 µM | 139.8 to 140.1 °C | – | – | COc1ccc2c(c1)c(=O)oc1cc(OCC3CCCCC3)ccc12 [Compound 2n, 3-(Cyclohexylmethoxy)-8-methoxy-6H-benzo[c]chromen-6-one]
> 50 µM | 151.6 to 153.2 °C | – | – | COc1ccc2c(c1)c(=O)oc1cc(OCCC3OCCO3)ccc12 [Compound 2o, 3-(2-(1,3-Dioxolan-2-yl)ethoxy)-8-methoxy-6H-benzo[c]chromen-6-one]
25.2 ± 6.91 µM | 168.1 to 168.5 °C | – | – | COc1ccc2c(c1)c(=O)oc1cc(OCC3CCOCC3)ccc12 [Compound 2p, 8-Methoxy-3-((tetrahydro-2H-pyran-4-yl)methoxy)-6H-benzo[c]chromen-6-one]
23.3 ± 4.28 µM | 141.7 to 142.5 °C | – | – | COc1ccc2c(c1)c(=O)oc1cc(OCc3ccccc3)ccc12 [Compound 2q, 3-(Benzyloxy)-8-methoxy-6H-benzo[c]chromen-6-one]
> 50 µM | 192.4 to 194.6 °C | – | – | COc1ccc2c(c1)c(=O)oc1cc(OCc3ccc(CO)cc3)ccc12 [Compound 2r, 3-((4-[Hydroxymethyl]benzyl)oxy)-8-methoxy-6H-benzo[c]chromen-6-one]
> 50 µM | 153.6 to 155.3 °C | – | – | COc1cc(COc2ccc3c(c2)oc(=O)c2cc(OC)ccc23)cc(OC)c1 [Compound 2s, 3-((3,5-Dimethoxybenzyl)oxy)-8-methoxy-6H-benzo[c]chromen-6-one]
– | 203.6 to 204.9 °C | – | Insoluble | COc1ccc2c(c1)c(=O)oc1cc(OCc3ccccc3F)ccc12 [Compound 2t, 3-((2-Fluorobenzyl)oxy)-8-methoxy-6H-benzo[c]chromen-6-one]
29.4 ± 5.01 µM | 184.6 to 186.6 °C | – | – | COc1ccc2c(c1)c(=O)oc1cc(OCc3cc(C)nn3C)ccc12 [Compound 2u, 3-((1,3-Dimethyl-1H-pyrazol-5-yl)methoxy)-8-methoxy-6H-benzo[c]chromen-6-one]
– | 212.3 to 214 °C | – | – | COc1ccc2c(c1)c(=O)oc1cc(Oc3ncccn3)ccc12 [Compound 2v, 8-Methoxy-3-(pyrimidin-2-yloxy)-6H-benzo[c]chromen-6-one]
> 50 µM | 159 to 161.1 °C | – | – | COc1ccc2c(c1)c(=O)oc1cc(OCCn3cccn3)ccc12 [Compound 2w, 3-(2-(1H-pyrazol-1-yl)ethoxy)-8-methoxy-6H-benzo[c]chromen-6-one]

Structure (SMILES) | IC50 (PDE2; [1]) | melting point | PDE2 inhibitory activity (result in words) (PDE2) | PDE2 IC50 (PDE2; [1])
CCC(C)Oc1ccc2c(c1)oc(=O)c1ccccc12 (centres unmarked) [Compound 1e, 3-(Sec-butoxy)-6H-benzo[c]chromen-6-one] | 37.7 ± 4.9 µM | 73.2 to 75.8 °C | – | –
CCC(C)Oc1ccc2c(c1)oc(=O)c1cc(OC)ccc12 (centres unmarked) [Compound 2d, 3-(Sec-butoxy)-8-methoxy-6H-benzo[c]chromen-6-one] | > 50 µM | 64.5 to 66.7 °C | – | –
CCCCOc1ccc2c(c1)oc(=O)c1cc(OC)ccc12 [Compound 2e, 3-Butoxy-8-methoxy-6H-benzo[c]chromen-6-one] | 17.8 ± 4.07 µM | 102.5 to 104.4 °C | good PDE2 inhibitory activity | –
COc1ccc2c(c1)c(=O)oc1cc(OCCSC)ccc12 [Compound 2i, 8-Methoxy-3-(2-(methylthio)ethoxy)-6H-benzo[c]chromen-6-one] | 14.9 ± 1.78 µM | 110.1 to 111.8 °C | best PDE2 inhibitory activity; also recorded: good PDE2 inhibitory activity | –
